Key:
DEX-treated mice = assay: Tail suspension test (TST), neonatal dexamethasone exposure model of depression; type: in vivo; conditions: juvenile DEX-treated mice, 10 mg/kg i.p. single injection
Method: A new animal model of depression was prepared by exposing mice neonatally to dexamethasone (hereinafter abbreviated as DEX). […] The mouse model was prepared and reported only recently by the inventors of the present application and their collaborators (Non Patent Literature 18). […] Further, alterations were found in levels of amino acids (glutamate, glutamine, glycine, D-serine, and L-serine) in mouse brains after the neonatal DEX exposure (Non Patent Literature 18). Those amino acids are known to be associated with NMDA receptor mediated neurotransmission. Thus, it is conceivable that alterations in glutamatergic transmission via the NMDA receptor after the neonatal DEX exposure may be involved in the depression-like behavior in the juvenile mice and the adult mice (Non Patent Literature 18).
The preparation of the animal model of depression and the administration of the agent were specifically performed as described below (FIG. 2A). Male and female ICR mice (9-week-old, Japan SLC, Inc., Hamamatsu, Japan) were used. The mice were given free access to water and feed. A breeding procedure consisted of housing three to four females with one male, for 14 days. On the final day of this period, the females were placed in isolation and checked daily around the expected delivery day. The day of birth was defined as day 0. The mice were injected intraperitoneally with DEX (Wako Pure Chemical Industries, Ltd., Tokyo, Japan) dissolved in saline on day 1, day 2, and day 3 at doses of 0.5 mg/kg body weight, 0.3 mg/kg body weight, and 0.1 mg/kg body weight, respectively. In addition, normal controls were injected with equal volumes (10 ml/kg) of saline.
The antidepressant effects of the agent were investigated for juvenile mice by behavioral tests such as the TST, the PST, the LMT, and a 1% sucrose preference test (SPT) (FIG. 2A). The TST and the PST were performed twice, i.e., the day (27 hours and 29 hours, respectively) and 7 days after the injection of ketamine, and the LMT and the SPT were performed on the day and 2 days after the injection of ketamine. The TST was performed as described below. First, the mice were taken out from cages, and then a small piece of an adhesive tape was bonded onto a portion approximately 2 cm away from the tip of the tail of the mice. […] The immobility time of each mouse was recorded for 10 minutes. […] The immobility time was calculated as a value obtained by subtracting active time from total time, using the analysis software of the apparatus. Cumulative immobility time was recorded over 6 minutes during a test period. […] The locomotor activity of the mice was counted with SCANET MV-40, and the cumulative exercise of the mice was recorded for 60 minutes. […]

[1] = test system: social defeat stress mice; assay: Tail suspension test (TST), social defeat stress model; type: in vivo; conditions: 10 mg/kg i.p.
Method: (§1) A social defeat stress model of depression was prepared by bringing C57/B6 male mice into contact with ICR male mice (large aggressive mice) for 10 consecutive days to apply a stress called a “social defeat stress” in accordance with the previous report (Non Patent Literature 19). […] Specifically, an increase in immobility time was found in each of a tail suspension test (TST) and a forced swimming test (FST).
(§2) The preparation of the animal model of depression and the administration of the agent were specifically performed as described below (FIG. 3A). Male C57/B6 mice (7-week-old, Japan SLC, Inc., Hamamatsu, Japan) and ICR mice (9-week-old, Japan SLC, Inc., Hamamatsu, Japan) were used. The mice were given free access to water and feed. A social defeat stress was applied by housing one C57/B6 mouse with one ICR mouse for 10 days.
(§3) The antidepressant effects of the agent were investigated by behavioral tests such as the TST, the PST, the LMT, and a 1% sucrose preference test (SPT) (FIG. 3A). The 1% sucrose preference test (SPT) was performed on 1 day and 6 days after the injection of ketamine. Each of the TST and the PST was performed on 2 days and 7 days after the injection of ketamine. The TST was performed as described below. First, the mice were taken out from cages, and then a small piece of an adhesive tape was bonded onto a portion approximately 2 cm away from the tip of the tail of the mice. A small hole was opened in the small piece, and the mice were each fixed upside down on a hook through the small hole. The immobility time of each mouse was recorded for 10 minutes. Mice were considered immobile only when they hung passively and completely motionless. The immobility time increases in a depressive state. The PST was performed as described below. First, the mice were placed individually in a cylinder (diameter: 23 cm; height: 31 cm) containing 15 cm of water, maintained at 22 to 24 deg C. The mice were tested in an automated forced-swimming apparatus using SCANET MV-40 ([…] Co., Ltd., Toyama, Japan). The immobility time was calculated as a value obtained by subtracting active time from total time, using the analysis software of the apparatus. Cumulative immobility time was recorded over 6 minutes during a test period. The LMT was performed as described below. First, the mice were placed in experimental cages (length×width×height: 560×560×330 mm). The locomotor activity of the mice was counted with SCANET MV-40, and the cumulative exercise of the mice was recorded for 60 minutes. The cages were cleaned between testing session. The immobility time increases in a depressive state. […] A spine density was quantitatively evaluated by observation with a KEYENCE microscope (BZ-9000, Osaka, Japan).

[2] = test system: social defeat stress mice; assay: Forced swimming test (FST), social defeat stress model; type: in vivo; conditions: 10 mg/kg i.p.
Method: as §1, §2, §3

[3] = test system: social defeat stress mice; assay: Locomotion test (LMT), social defeat stress model; type: in vivo; conditions: 10 mg/kg i.p., 2 days after injection
Method: as §1
The preparation of the animal model of depression and the administration of the agent were specifically performed as described below (FIG. 3A). Male C57/B6 mice (7-week-old, Japan SLC, Inc., Hamamatsu, Japan) and ICR mice (9-week-old, Japan SLC, Inc., Hamamatsu, Japan) were used. […]
The antidepressant effects of the agent were investigated by behavioral tests such as the TST, the PST, the LMT, and a 1% sucrose preference test (SPT) (FIG. 3A). […] The immobility time of each mouse was recorded for 10 minutes. […] The immobility time was calculated as a value obtained by subtracting active time from total time, using the analysis software of the apparatus. Cumulative immobility time was recorded over 6 minutes during a test period. […] The locomotor activity of the mice was counted with SCANET MV-40, and the cumulative exercise of the mice was recorded for 60 minutes. […] A spine density was quantitatively evaluated by observation with a KEYENCE microscope (BZ-9000, Osaka, Japan).

[4] = test system: dopamine release in the striatum; conditions: imaging studies in nonhuman primates; Hashimoto et al., 2017; cited from earlier work

Row | SMILES | immobility time in the TST (DEX-treated mice; 27 hours after injection) | immobility time in the TST (DEX-treated mice; 7 days after injection) | immobility time in the TST ([1]; 2 days after injection) | immobility time in the TST ([1]; 7 days after injection) | immobility time in the FST ([2]; 2 days after injection) | immobility time in the FST ([2]; 7 days after injection) | locomotion in the LMT [3] | dopamine release in the striatum [4]
1 | CN[C@@]1(c2ccccc2Cl)CCCCC1=O.Cl [R(−)-ketamine] | markedly reduced the immobility time | significantly reduced the immobility time | markedly reduced the immobility time | significantly reduced the immobility time | markedly reduced the immobility time | significantly reduced the immobility time | no difference in locomotion | not
2 | CN[C@]1(c2ccccc2Cl)CCCCC1=O [S(+)-ketamine] | markedly reduced the immobility time | did not reduce the immobility time | markedly reduced the immobility time | significantly reduced the immobility time | markedly reduced the immobility time | significantly reduced the immobility time | no difference in locomotion | increases dopamine release in the striatum
